Legend:
[1] = biological target: T1, OCT2 (Homo sapiens, UniProt O15244); assay: Inhibition of OCT2-mediated oxaliplatin uptake in transfected MDCK-II cells (protein-free HBSS)
T1 sequence (O15244 1-555): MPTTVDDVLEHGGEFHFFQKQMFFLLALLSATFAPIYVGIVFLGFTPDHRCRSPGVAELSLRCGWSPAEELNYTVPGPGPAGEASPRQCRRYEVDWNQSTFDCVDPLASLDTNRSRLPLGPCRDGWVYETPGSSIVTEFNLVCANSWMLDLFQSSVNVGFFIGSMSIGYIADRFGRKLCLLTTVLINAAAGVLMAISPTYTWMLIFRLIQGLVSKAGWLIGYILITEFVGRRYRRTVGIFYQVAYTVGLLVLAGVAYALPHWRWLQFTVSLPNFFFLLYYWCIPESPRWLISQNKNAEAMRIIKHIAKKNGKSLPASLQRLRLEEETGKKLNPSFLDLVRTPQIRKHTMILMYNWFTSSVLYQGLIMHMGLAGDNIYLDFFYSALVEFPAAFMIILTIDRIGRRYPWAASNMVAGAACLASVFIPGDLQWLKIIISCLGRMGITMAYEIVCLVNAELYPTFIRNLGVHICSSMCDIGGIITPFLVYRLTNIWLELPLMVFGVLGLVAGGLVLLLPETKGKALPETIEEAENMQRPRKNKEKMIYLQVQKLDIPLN
Text: Fully confluent MDCK cell monolayers were transfected with either cDNA plasmids encoding the human transporter to be tested or a GFP control. […] The cells were then washed with ice-cold PBS and lysed with 50:50 acetonitrile:H2O. Intracellular content of the substrate was quantified by LC/MS/MS or a MicroBeta radiometric plate reader.

[2] = tested on: Balb/c mice exposed to acute treatment with Oxaliplatin; assay: Dynamic test (mechanical pain threshold) after a single oxaliplatin administration; format: in vivo, mouse; details: 24 hours after single OXA 3.5 mg/kg iv; DTG 4 mg/kg ip 1 hour before; CPC 4 mg/kg iv co-administered; listed as CPC
Procedure: OXA vehicle, OXA, CPC, DTG, DTG+OXA and CPC+OXA were administered once time. In the group co-administered with OXA and DTG. DTG was injected intraperitoneally 1 hour before the administration of OXA. In the group co-administered with OXA and CPC, CPC was co-administered with OXA intravenously. Mechanical allodynia and cold sensory threshold (dynamic test and cold plate test) were performed 24 and 48 hours after the treatment, respectively, using the methods described in EXAMPLE 15 Plasma Sample Collection

[3] = biological target: T1, OCT2

- fold less potent as inhibitor of OCT2-mediated metformin and oxaliplatin uptake than of ASP+ uptake ([1]; comparison of Table 1 potencies): more than 100 fold
- inhibition at 30 min, 5 μM ([1]; human): 28%
- inhibition at 30 min, 50 μM ([1]; human): 36%
- potency estimated from few doses at 30 min ([1]; human, IC50 (μM) (substrate Oxaliplatin)): 90.4 µM
- IC50 (μM) (substrate Metformin) [3]: no
Structure (SMILES): NC(=O)OCC(O)COc1ccc(Cl)cc1 (stereo not drawn) [Chlorphenesin Carbamate]
- Mechanical Pain Threshold (MPT), mechanical hypersensitivity [2]: no such effect

— patent US11197862B2, “Methods of preventing toxicity of platinum drugs” (XOMICS BIOPHARMA, INC., priority 2015, dated 2021)
